From ChEMBL document CHEMBL6153027, “Recent report on indoles as a privileged anti-viral scaffold in drug discovery” (Eur J Med Chem, 2025)
≈ marks a conversion by molar mass, not a printed value.

Legend:
SARS-CoV-2 [1] = assay type: functional, organism-based, Vero E6; details: Severe acute respiratory syndrome coronavirus 2, Vero C1008, 48 h
[2] = tested on: Venezuelan equine encephalitis virus; assay: Antiviral activity against VEEV TC-83 infected in human U-87 MG cells assessed as reduction in viral replication; assay type: functional, organism-based; details: TC-83, U-87 MG
[3] = tested on: Respiratory syncytial virus; assay: Antiviral activity against RSV-A infected in human A549 cells at 0.01 MOI assessed as inhibition of virus induced cytopathic effect […] by MTT assay; assay type: functional, organism-based
SARS-CoV-2 [4] = assay type: functional, organism-based, Vero E6; details: Severe acute respiratory syndrome coronavirus 2, Vero C1008, 48 h; remark: listed apart in the source
[5] = Inhibition of N-terminal SARS-CoV-2 Main protease using ESATLQSGLRKAK-QXL-NH2 as substrate incubated for 60 mins by FRET assay; set-up: species or system Severe acute respiratory syndrome coronavirus 2
Sindbis virus = assay: Antiviral activity against Sindbis virus infected in African green monkey Vero cells assessed as reduction in virus induced cytopathic effect; assay type: functional, organism-based
SARS-CoV-2 [6] = assay type: functional, organism-based, Vero E6; details: Severe acute respiratory syndrome coronavirus 2, Vero C1008
SARS-CoV-2 [7] = assay type: functional, organism-based; details: Severe acute respiratory syndrome coronavirus 2, Wuhan-Hu-1, Vero C1008
Zika virus = assay: Antiviral activity against Zika virus infected in African green monkey Vero cells assessed as reduction in virus induced cell death; assay type: functional, organism-based
Potato virus Y = assay: Antiviral activity against Potato Virus Y; assay type: functional, organism-based
[8] = Cytotoxicity against African green monkey Vero E6 cells assessed as reduction in cell viability measured for 3 days by CCK-8 assay; assay type: toxicity, cell-based; details: chlorocebus sabaeus, Vero E6 cells (Vero C1008); time 3 day
[9] = tested on: Human immunodeficiency virus 1; assay: Antiviral activity against HIV-1 IIIB infected in human C8166 cells assessed as reduction in viral replication; assay type: functional, organism-based; details: Human immunodeficiency virus 1, IIIB
C8166 = assay: Cytotoxicity against human C8166 cells assessed as reduction in cell viability incubated for 3 days by MTT assay; assay type: functional; details: C8166, 72 h, time 3 day
[10] = tested on: Human immunodeficiency virus 1; assay: Antiviral activity against wild type HIV-1 NL4-3 infected in human MT4 cells assessed as reduction in viral replication; assay type: functional, organism-based; details: Human immunodeficiency virus 1, NL4-3, MT4
[11] = target: T1, Human immunodeficiency virus type 1 integrase (Human immunodeficiency virus 1, UniProt Q7ZJM1); assay: Inhibition of HIV-1 integrase
[12] = Inhibition of Influenza A virus A/California/04/2009 (H1N1) domain of PA endonuclease expressed in Escherichia coli BL21 (DE3) cells
Influenza A virus = assay: Antiviral activity against Influenza virus […] (A/California/07/2009 pdm09) infected in human Calu-3 cells assessed as viral RNA measured after 3 days by RT-PCR assay; assay type: functional, organism-based; details: Calu-3, 72 h
[13] = tested on: Human immunodeficiency virus 1; assay: Antiviral activity against HIV-1 infected in human MT4 cells assessed as reduction in viral replication; assay type: functional, organism-based; details: Human immunodeficiency virus 1, MT4
[14] = Inhibition of Influenza A virus H5N1 neuraminidase
[15] = target: T1, Human immunodeficiency virus type 1 integrase; assay: Inhibition of recombinant HIV-1 integrase by strand transfer activity
[16] = Inhibition of Zika virus NS5 RNA dependent RNA polymerase
[17] = Cytotoxicity against African green monkey Vero cells assessed as reduction in cell viability measured after 72 hrs by MTT assay; assay type: toxicity, cell-based; details: chlorocebus sabaeus
Human respirovirus 1 = assay: Antiviral activity against Human parainfluenza virus 1 infected in Vero cells assessed as reduction in viral replication at 10 ug/ml relative to control; assay type: functional; set-up: scale not given: the % may be the effect or the level left; details: dose 10 µg/ml
[18] = tested on: Respiratory syncytial virus; assay: Antiviral activity against Respiratory syncytial virus; assay type: functional, organism-based; details: human respiratory syncytial virus
[19] = tested on: Vesicular stomatitis virus; assay: Antiviral activity against Vesicular stomatitis virus; assay type: functional, organism-based
Human alphaherpesvirus 2 = assay: Antiviral activity against HSV-2 infected in African green monkey Vero cells assessed as reduction in virus-induced cytopathic effect incubated for 3 days by MTT assay; assay type: functional, organism-based; details: Human alphaherpesvirus 2, Vero, 72 h
[20] = Toxicity in African green monkey Vero cells assessed as reduction in cell viability incubated for 3 days by MTT assay; assay type: cell-based; details: chlorocebus sabaeus, time 3 day, read-out: TC50
SARS-CoV-2 [21] = assay type: functional, organism-based; details: Severe acute respiratory syndrome coronavirus 2, Wuhan-Hu-1, Vero C1008; remark: listed apart in the source
[22] = tested on: Respiratory syncytial virus; assay: Antiviral activity against RSV-A2 infected in human HEp-2 cells incubated for 4 days by Cell Titer Glo assay; assay type: functional, organism-based; details: A2, HEp-2, 96 h
Tobacco mosaic virus = assay: Antiviral activity against Tobacco mosaic virus; assay type: functional, organism-based

T1 sequence (Q7ZJM1 whole entry): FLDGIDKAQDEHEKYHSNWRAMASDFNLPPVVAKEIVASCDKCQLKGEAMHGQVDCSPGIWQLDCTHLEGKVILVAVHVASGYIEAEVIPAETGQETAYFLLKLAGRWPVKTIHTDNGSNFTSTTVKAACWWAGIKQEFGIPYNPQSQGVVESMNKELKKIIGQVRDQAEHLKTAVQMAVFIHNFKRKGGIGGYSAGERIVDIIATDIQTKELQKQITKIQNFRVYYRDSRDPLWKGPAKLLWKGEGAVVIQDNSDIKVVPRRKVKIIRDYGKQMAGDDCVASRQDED

Structure (SMILES): Cc1cncc(C#Cc2c[nH]c3ncc(-c4ccc(C(=O)NC5CC5)cc4)cc23)c1
- EC50 (SARS-CoV-2 [1]): 1.82 µM
- EC50 [2]: 1.8 µM
- EC50 [3]: 0.18 µM

Structure (SMILES): CCCCCCCCCCCCCCCCCc1nnc(SCC(O)CO)n1/N=C/c1cn(Cc2ccccc2)c2ccccc12 (configuration not stated)
- IC50 (SARS-CoV-2 [4]): 112 µM
- IC50 [5]: 8.93 µM

Structure (SMILES): NS(=O)(=O)c1ccc(NC(=S)N/N=C2\C(=O)Nc3ccc(OC(F)(F)F)cc32)cc1
- EC50 (Sindbis virus): 2 µM

Structure (SMILES): CS(=O)(=O)Oc1ccc(C(=O)/C=C2/C(=O)Nc3ccccc32)cc1
- IC50 (SARS-CoV-2 [6]): 3.8 µM

Structure (SMILES): O=C(NCCc1ccc(N2CCCC2)cc1)c1[nH]c2ccc(Cl)cc2c1CO
- IC50 (SARS-CoV-2 [7]): 3.42 µM

Structure (SMILES): CN1C(=O)/C(=N\NC(=S)Nc2ccc(S(N)(=O)=O)cc2)c2cc(Br)ccc21
- EC50 (Sindbis virus): > 2 µM

Structure (SMILES): O=C1C(=O)N(Cc2ccc3ccccc3c2)c2ccccc21
- IC50 (Zika virus): 0.32 µM

Structure (SMILES): NS(=O)(=O)c1ccc(NC(=S)N/N=C2\C(=O)Nc3ccc(Br)cc32)cc1
- EC50 (Sindbis virus): 3 µM

Structure (SMILES): CCOc1ccc(C2=NN(C(N)=S)C(C3CN(Cc4ccc(C(F)(F)F)cc4)c4ccccc43)C2)cc1F (configuration not stated)
- EC50 (Potato virus Y): 202 µg/mL (≈ 372 µM)

Structure (SMILES): O=C(Oc1cncc(Cl)c1)c1cccc2c1CCN2
- CC50 at 72 h [8]: > 100 µM

Structure (SMILES): CN1C(=O)/C(=N\NC(=S)Nc2ccc(S(N)(=O)=O)cc2)c2cc(OC(F)(F)F)ccc21
- EC50 (Sindbis virus): > 20 µM

Structure (SMILES): CCc1ccc(S(=O)(=O)n2cc(C(=O)CN3CCOCC3)c3ccc(C)cc32)cc1
- EC50 [9]: 9.42 µM

Structure (SMILES): CCc1ccc(S(=O)(=O)n2cc(C(=O)CCc3nnc(-c4ccccc4)o3)c3ccc(C)cc32)cc1
- CC50 (C8166): > 469 µM
- EC50 [9]: 4.62 µM

Structure (SMILES): O=C(NCC1CCNCC1)c1c[nH]c2cc(-c3ccoc3)c(-c3ccoc3)cc12
- IC50 (SARS-CoV-2 [7]): 3.8 µM

Structure (SMILES): O=C(NCCc1ccc(N2CCOCC2)cc1)c1[nH]c2ccc(Cl)cc2c1CO
- IC50 (SARS-CoV-2 [4]): 4.2 µM

Structure (SMILES): O=C(NN1C(=O)CSC12CCCCC2)c1[nH]c2ccc(Cl)cc2c1-c1ccccc1
- EC50 (Sindbis virus): 1.9 µM

Structure (SMILES): CCCCCCCCCCCCCCCCCc1nnc(SCCO)n1/N=C/c1cn(Cc2ccccc2)c2ccccc12
- IC50 (SARS-CoV-2 [4]): 87.6 µM
- IC50 [5]: 8.7 µM

Structure (SMILES): COP(=O)(c1cc(C)cc(OCC#N)c1)c1c(C(N)=O)[nH]c2ccc(Cl)cc12 (configuration not stated)
- EC50 [10]: 0.08 nM

Structure (SMILES): CCS(=O)(=O)N(c1ccc(C(=O)/C=C2/C(=O)Nc3ccccc32)cc1)S(=O)(=O)CC
- IC50 (SARS-CoV-2 [6]): 3.42 µM

Structure (SMILES): O=C(NCC1CCNCC1)c1cc2ccc(-c3ccoc3)cc2[nH]1
- IC50 (Zika virus): 0.37 µM

Structure (SMILES): O=C1c2c(ccc(O)c2O)CN1Cc1ccc(O)cc1
- IC50 [11]: 0.0075 µM
- IC50 [12]: 0.0075 µM
- EC50 (Influenza A virus): ~4 µM
- EC50 [13]: ~4 µM

Structure (SMILES): O=C1C[C@@H]2OCC=C3CN4CC[C@]56c7ccccc7N1[C@H]5[C@H]2[C@H]3C[C@H]46.O=S(=O)(O)O
- IC50 [14]: 11.85 µg/mL

Structure (SMILES): O=C(O)/C(O)=C/C(=O)c1cn(S(=O)(=O)C(=O)c2ccc(F)cc2)c2ccc(Br)cc12
- IC50 [15]: 0.2 µM

Structure (SMILES): COc1ccc([C@H]2N(Nc3ccc([N+](=O)[O-])cc3)C(=O)C3Cc4ccccc4N32)cc1O[Si](C)(C)C(C)(C)C (mixture of isomers)
- IC50 [16]: 9.89 µM
- CC50 at 72 h [17]: > 100 µM

Structure (SMILES): CC1CCCC2(C1)SCCN2NC(=O)c1[nH]c2ccc(S(N)(=O)=O)cc2c1-c1ccccc1 (configuration not stated)
- Activity (Human respirovirus 1): 95.46%

Structure (SMILES): Cc1ccc2c(c1)C(=O)C(=O)N2Cc1ccc2ccccc2c1
- EC50 [18]: 6.8 µM
- EC50 [19]: 6.8 µM

Structure (SMILES): CC1=NCCc2c1[nH]c1ccccc21
- IC50 [14]: 0.023 µg/mL (≈ 0.125 µM)

Structure (SMILES): COc1cccc2[nH]c(C(=O)N[C@@H](CC(C)C)C(=O)N[C@@H](C[C@@H]3CCNC3=O)C(=O)c3nc4ccccc4s3)cc12
- CC50 at 72 h [8]: > 100 µM

Structure (SMILES): COc1ccc([C@H]2N(Nc3ccccc3)C(=O)C3Cc4ccccc4N32)cc1O[Si](C)(C)C(C)(C)C (mixture of isomers)
- IC50 [16]: 10.7 µM
- CC50 at 72 h [17]: > 100 µM

Structure (SMILES): CN1C(=O)/C(=N\NC(=S)Nc2ccc(S(N)(=O)=O)cc2)c2cc(F)ccc21
- EC50 (Sindbis virus): > 4 µM

Structure (SMILES): CCOC(=O)c1c(CSc2ccccc2)n(C)c2cc(Br)c(O)c(CN(C)C)c12 [UMIFENOVIR]
- IC50 (Human alphaherpesvirus 2): 4.77 µg/mL (≈ 9.99 µM)
- CC50 at 72 h [20]: 32.3 µg/mL (≈ 67.7 µM)

Structure (SMILES): Cc1ccc(S(=O)(=O)n2cc(C(=O)/C=C3\OC(C)(C)OC3=O)c3cc(Br)ccc32)cc1
- IC50 [15]: 5.7 µM

Structure (SMILES): O=C1C(=O)N(Cc2cccc3ccccc23)c2ccc(Br)cc21
- EC50 (SARS-CoV-2 [21]): 6.8 µM
- EC50 [22]: 6.8 µM

Structure (SMILES): CC1=NCCc2c1[nH]c1cc(O)ccc21 [HARMALOL]
- IC50 [14]: 0.02 µg/mL (≈ 0.0999 µM)

Structure (SMILES): C#CCCn1ccc2c(C3=N[C@@H](C(C)C)CO3)cccc21
- EC50 (Potato virus Y): 256 µg/mL (≈ 913 µM)

Structure (SMILES): COc1ccc2c3c([nH]c2c1)C(C)=NCC3 [HARMALINE]
- IC50 [14]: 3.42 µg/mL (≈ 16 µM)

Structure (SMILES): O=C1C2Cc3ccccc3N2[C@@H](c2ccc(O)c(O)c2)N1Nc1ccc([N+](=O)[O-])cc1 (some centres not stated)
- IC50 [16]: 8.52 µM
- CC50 at 72 h [17]: > 100 µM

Structure (SMILES): CCOC(=O)c1c(C)n(C)c2ccc(OCCCOc3ccc(C(=O)/C=C/c4ccc(C)cc4)cc3)cc12
- EC50 (Tobacco mosaic virus): 107 µg/mL (≈ 210 µM)
